The source of these data is PubChem BioAssay AID1996.

The structures appear in SMILES notation. ≈ marks a conversion by molar mass, not a printed value.

For the data set the following is noted: buffer; pH 7.4; 200.0 µM.
In turn, `Cc1ccc(S(=O)(=O)NCC(=O)OCC(=O)Nc2cccc(S(=O)(=O)N3CCOCC3)c2)cc1` registered a kinetic solubility greater than 76.7 µg/mL.
`Cc1cc(C)nc(SCC(=O)NC2CCCC2)n1` yielded a solubility (kinetic) greater than 39.8 µg/mL.
The result for `CC1CCCN(CCC(=O)c2ccc(Br)cc2)C1.Cl` (centres undefined) reads 33.8 µg/mL; that for `COc1ccc(S(=O)(=O)N2CCCCC2)cc1NS(=O)(=O)c1ccc(CNC(C)=O)cc1`, 62.5 µg/mL (≈ 130 µM); that for `CCN(CC)CC(O)Cn1c(-c2cccc(Cl)c2)nc2cc(C)c(C)cc21` (centres undefined), 53.4 µg/mL (≈ 138 µM).
Then `O=C1NC2(CCCC2)Oc2ccccc21`, with greater than 30.5 µg/mL; and `CC1=C(C)CC(C(=O)NC(C)CCc2ccccc2)C(C(=O)O)C1` (centres undefined), with greater than 49.4 µg/mL; and `Cc1ccsc1C(=O)OCc1nc2ccsc2c(=O)[nH]1`, with greater than 46 µg/mL.
`CC(C)Cc1ccc(C(=O)NCc2ccc3c(c2)OCO3)o1` yielded a solubility (kinetic) of 28.3 µg/mL (≈ 93.9 µM).
Then `O=C(NC1=NCCS1)c1ccc(F)c(S(=O)(=O)N2CCOCC2)c1`, with greater than 56 µg/mL; and `NC(=O)c1ccccc1NC(=O)N1CCOCC1`, with 37.1 µg/mL (≈ 149 µM); and `Cc1ccccc1OC(C)C(=O)NCc1cccnc1` (centres undefined), with 38.1 µg/mL (≈ 141 µM).
Then `CCOC(=O)c1sc(NC(=O)c2ccc(=O)[nH]c2)nc1C`, with 7.3 µg/mL (≈ 23.8 µM); and `O=C(COC(=O)c1cccc(OC(F)F)c1)NC1CCCC1`, with 28.2 µg/mL (≈ 90 µM).
`COC(=O)c1sccc1NC(=O)Nc1ccc(OC)cc1OC` returned a kinetic solubility of 15.4 µg/mL (≈ 45.8 µM).
Then `O=C(OCC(=O)N1CCCC1)c1c(Cl)cccc1Cl`, with 39.6 µg/mL (≈ 131 µM); and `O=C(Nc1ccc(S(=O)(=O)N2CCc3ccccc32)cc1)C(F)(F)F`, with greater than 55.6 µg/mL; and `O=C(NCC(=O)N1CCCC1)c1ccc(Cl)cc1`, with greater than 40 µg/mL.
The result for `Cc1cc(-c2nc3ccccc3c(=O)o2)ccc1[N+](=O)[O-]` reads less than 0.3 µg/mL.
Then `CCOC(=O)C1CCCN(Cc2ccc(-c3ccccc3)cc2)C1` (centres undefined), with 11.9 µg/mL (≈ 36.8 µM).
In turn, `Cn1cc(-c2cc(C(=O)O)on2)cn1` displayed a solubility (kinetic) greater than 29 µg/mL.
The result for `Cc1nc(SCC(=O)NC2CCCCC2C)nc(C)c1C` (centres undefined) reads greater than 46.1 µg/mL.
Regarding `CCOC(=O)N1CCN(C(=O)Cc2ccccc2OC)CC1`, the kinetic solubility was greater than 46 µg/mL.
The result for `CNS(=O)(=O)c1cccc(C(=O)OCC(=O)Nc2nc(OC)cc(OC)n2)c1` reads 15 µg/mL (≈ 36.5 µM).
Then `Cl.c1ccc(-c2ccc(CNC3CC3)cc2)cc1`, with 37.9 µg/mL.
As for `O=C(CN1CCN(Cc2ccc(F)cc2)C1=O)NC1CCCC1`, the solubility (kinetic) was greater than 47.9 µg/mL.
Then `CCCOc1cccc(C(=O)NCCNC(=O)c2ccco2)c1`, with greater than 47.5 µg/mL; and `CC(C)(C)c1ccc(S(=O)(=O)N2CCN(C3CCCC3)CC2)cc1`, with less than 0.4 µg/mL; and `NS(=O)(=O)c1ccc(CCNC(=O)Cc2cccs2)cc1`, with 31.8 µg/mL (≈ 98 µM).
Then `CN(C)S(=O)(=O)c1cccc(NC(=O)CCNC(=O)Nc2ccccc2)c1`, with greater than 58.6 µg/mL; and `Cc1ccccc1-c1nc(S(=O)(=O)c2ccccc2)c(N2CCCC2)o1`, with 10.1 µg/mL (≈ 27.4 µM).
The result for `Cc1ccccc1OCCN1CCCC1` reads 19.5 µg/mL (≈ 95 µM).
`OC(c1nnc(-c2ccccc2)o1)c1cccs1` (centres undefined) displayed a solubility (kinetic) greater than 38.7 µg/mL.
In turn, `Oc1cccc2ccc(/C=C/c3ccccc3Cl)nc12` yielded a kinetic solubility of less than 0.6 µg/mL.
As to `O=C(c1cc2ccccc2o1)N1CC=C(c2ccccc2)CC1`, the kinetic solubility was 5.1 µg/mL (≈ 16.8 µM).
The result for `CCOc1nc(Nc2ccccc2F)nc(OCC)n1` reads 10.4 µg/mL (≈ 37.4 µM); that for `Nc1ccc(Cl)c(S(=O)(=O)Nc2ccc(Cl)cc2)c1`, 43.4 µg/mL (≈ 137 µM); that for `O=C(c1ccc(F)cc1)N1CCN(c2ccc([N+](=O)[O-])cc2-n2cccc2)CC1`, 3.3 µg/mL (≈ 8.37 µM).
Turning to `CCCCc1ccc(NC(=S)N2CCN(c3ccccn3)CC2)cc1`, the solubility (kinetic) turned out to be 0.8 µg/mL (≈ 2.26 µM).
Then `CCCn1cnc2c(oc3ccccc32)c1=O`, with greater than 34.2 µg/mL; and `COc1ccc([N+](=O)[O-])cc1NC(=O)COC(=O)C=C(C)C`, with 1.1 µg/mL (≈ 3.57 µM).
In turn, `COCc1c(C(=O)OCC(=O)NCc2ccco2)oc2ccccc12` gave a solubility (kinetic) of 48 µg/mL (≈ 140 µM). Against the preceding compound, the solubility kinetic is about 44-fold higher.
Then `CCOC(=O)Cc1csc(NC(=O)CN2C(=O)c3ccccc3C2=O)n1`, with 54.3 µg/mL (≈ 145 µM); and `CC(C)N1C(=O)C(=O)N(CC(=O)N2CCc3ccccc32)C1=O`, with greater than 47.3 µg/mL.
Then `C=C(C)c1cccc(C(C)(C)NC(=O)N2CCC(C(N)=O)CC2)c1`, with greater than 49.4 µg/mL.
The result for `Cc1cc(N/N=C/c2ccc(O)cc2O)nc(N2CCOCC2)n1` reads greater than 49.4 µg/mL; that for `O=C(Nc1cccc(O)c1)c1cc(-c2cccs2)on1`, 1.3 µg/mL (≈ 4.54 µM).
On to `N#Cc1c(-c2ccccc2)oc(=O)c2ccccc12`, for which the solubility (kinetic) amounted to 1.2 µg/mL (≈ 4.85 µM).
Then `COc1ccc(NC(=O)CN(C)CC(=O)N2CC(=O)Nc3ccccc32)cc1`, with greater than 57.4 µg/mL; and `COc1ccc(NC(=S)NCc2ccc(F)cc2)cc1`, with greater than 43.6 µg/mL.
For the compound `NC(=O)c1ccc(N2CCC(C(N)=O)CC2)c([N+](=O)[O-])c1`, the kinetic solubility turned out to be 38.4 µg/mL (≈ 131 µM).
For `Cc1ccc(OCC(O)CN2CCOCC2)cc1` (centres undefined), the solubility (kinetic) is 33.4 µg/mL (≈ 133 µM).
Then `CC[C@H](C)[C@H](NC(N)=O)C(=O)NCCc1ccc(OC)c(OC)c1`, with greater than 50.6 µg/mL.
For `CN(C)CCSc1nc2cc(S(=O)(=O)N3CCCCC3)ccc2o1`, the kinetic solubility was 41.7 µg/mL (≈ 113 µM).
Then `CN(C)S(=O)(=O)c1ccc(Cl)c(C(=O)NC2=NCCS2)c1`, with greater than 52.2 µg/mL; and `COc1ccccc1OCC(=O)Nc1cc(S(=O)(=O)N2CCOCC2)ccc1N1CCCCC1`, with 3.1 µg/mL (≈ 6.33 µM).
Then `Cn1c(=O)c2sccc2n(Cc2ccccc2)c1=O`, with greater than 40.8 µg/mL; and `Cc1nc2ccc(NC(=S)NC3CCCCC3)cc2nc1C`, with greater than 47.2 µg/mL; and `CCn1cnc2cc(NCc3ccc(Cl)cc3)ccc21`, with 34 µg/mL (≈ 119 µM).
In the case of `O=C(c1ccc(-c2cc(Cl)ccc2Cl)o1)N1CCOCC1`, the solubility (kinetic) is 11.3 µg/mL (≈ 34.6 µM).
The result for `O=C(CN1CCS(=O)(=O)CC1)NNC(=O)C1CCCCC1` reads greater than 47.6 µg/mL; that for `OCCN(CC#CC(O)(c1ccccc1)c1ccccc1)CCO`, greater than 48.8 µg/mL.
The result for `COc1ccc(C(=O)NCc2ccc3[nH]c(C)cc3c2)cc1OC` reads 23.5 µg/mL (≈ 72.4 µM); that for `Cc1ccc(S(=O)(=O)NCc2cccnc2)cc1`, greater than 39.3 µg/mL; that for `O=C(NCC(O)c1ccc([N+](=O)[O-])cc1)C1=COCCO1` (centres undefined), greater than 44.1 µg/mL.
Then `OC(CN1CCc2ccccc2C1)c1ccccc1` (centres undefined), with greater than 38 µg/mL; and `CSc1nc(N(C)C)nc(N(C)C#N)n1`, with greater than 33.6 µg/mL; and `O=C1/C(=C\c2ccncc2)N2CCC1CC2`, with greater than 32.1 µg/mL.
For the compound `O=C(CN1c2cccc3cccc(c23)S1(=O)=O)N1CCN(c2ccccc2)CC1`, the kinetic solubility stood at 3.4 µg/mL (≈ 8.34 µM).
The result for `COc1ccc(C(C)=O)cc1CSC(=N)N.Cl` reads greater than 41.2 µg/mL; that for `Cc1ccc2nsnc2c1NC(=O)c1cncc(Br)c1`, 16.3 µg/mL (≈ 46.7 µM); that for `O=C(NCCc1ccccc1)c1ccccc1[N+](=O)[O-]`, 33.6 µg/mL (≈ 124 µM).
Then `Cc1ccc(S(=O)(=O)NCCNc2ccccc2[N+](=O)[O-])cc1`, with 1.1 µg/mL (≈ 3.28 µM).
The result for `O=C(CNC(=O)c1cccc(F)c1)N/N=C/c1cccs1` reads greater than 45.8 µg/mL.
For `Cc1cc(N2CCN(C(=O)Nc3ccc(F)cc3F)CC2)c2ccccc2n1`, the kinetic solubility is greater than 57.4 µg/mL.
Turning to `Cc1ccc(C(=O)O)cc1NS(=O)(=O)c1ccc2ccccc2c1`, the kinetic solubility is greater than 51.2 µg/mL.
Then `COc1ccccc1OCC(=O)Nc1ccc2c(c1)OCO2`, with 40.9 µg/mL (≈ 136 µM).
Then `CCc1c(O)c(-c2ccccc2)c(=O)n(-c2ccccn2)c1-c1ccccc1`, with greater than 55.3 µg/mL; and `COc1ccc(CCNc2nc(C)cc(C)n2)cc1OC.Cl`, with greater than 48.6 µg/mL; and `O=C(N/N=C/C1CC2CCC1C2)C1CC1` (centres undefined), with greater than 30.9 µg/mL.
Then `O=C(COC(=O)C1=COCCO1)Nc1ccccc1OC(F)F`, with greater than 49.4 µg/mL; and `CCOC(=O)c1[nH]cnc1C(=O)Nc1ccccc1C`, with 10.3 µg/mL (≈ 37.7 µM); and `Clc1ccccc1OCCCOc1cccc2cccnc12`, with 3.9 µg/mL (≈ 12.4 µM).
`O=C(Nc1ccccc1-c1ccccc1)c1ccccc1[N+](=O)[O-]` registered a solubility (kinetic) of 16.8 µg/mL (≈ 52.8 µM).
The result for `CCN(C(=O)COC(=O)CN1C(=O)c2ccccc2C1=O)c1ccccc1` reads greater than 55 µg/mL.
Then `Cc1cc(C(=O)NCc2ccc3c(c2)OCO3)ccc1[N+](=O)[O-]`, with 38.7 µg/mL (≈ 123 µM); and `Cl.NC(=NCCc1ccccc1)c1cccc([N+](=O)[O-])c1`, with greater than 45.9 µg/mL.
The result for `O=C(O)c1ccccc1C(=O)N(c1ccccc1)c1ccccc1` reads 46.8 µg/mL (≈ 147 µM); that for `CSc1ncccc1C(=O)Nc1nc(C(C)(C)C)cs1`, 37.6 µg/mL (≈ 122 µM).
In turn, `Cc1csc2c(N3CCC(C(=O)O)CC3)ncnc12` yielded a kinetic solubility of 36.9 µg/mL (≈ 133 µM).
In the case of `Cc1nc(NC(=O)c2ccccc2)sc1C`, the kinetic solubility stood at 29.6 µg/mL (≈ 127 µM).
The result for `O=C(Oc1ccc(F)cc1)N1CCOCC1` reads greater than 33.8 µg/mL.
Then `CC(C)c1csc2nc3n(c(=O)c12)CCCCC3`, with 32.9 µg/mL (≈ 125 µM).
Then `Cc1cccc(NC(=O)NCCN2CCCCC2)c1`, with greater than 39.2 µg/mL; and `O=S(=O)(c1ccc(-c2ccccn2)s1)N1CCC2(CC1)OCCO2`, with 1.5 µg/mL (≈ 4.09 µM).
Regarding `Cl.FC(F)Sc1ccc(NC2=NCCCCC2)cc1`, the solubility (kinetic) turned out to be 45 µg/mL.
Then `Cc1cc(=O)cc(C)n1-c1ccccc1N`, with 31.1 µg/mL (≈ 145 µM); and `CN(C)c1nc(N)ncc1-c1ccc(Oc2ccccc2)cc1`, with less than 0.2 µg/mL.
Then `COc1ccc(CNC(=O)c2c(C)cc(=O)oc2C)cc1`, with greater than 43.1 µg/mL.
Then `Cc1cc(C(=O)CN2C(=O)NC3(CCCCC3)C2=O)c(C)n1C`, with 19 µg/mL (≈ 59.9 µM).
In turn, `CSc1nc(C(C)C)ccc1CNC(=O)CC(C)c1ccccc1` (centres undefined) gave a solubility (kinetic) of 1.3 µg/mL (≈ 3.8 µM).
Turning to `Cc1cc(Br)cc(Cl)c1OC(=O)c1ccncc1`, the solubility (kinetic) stood at 9.5 µg/mL (≈ 29.1 µM).
Then `CC(=O)Nc1ccc2c(c1)nc(CCNC(=O)c1ccco1)n2C`, with 48.2 µg/mL (≈ 148 µM); and `Cc1ccc(-c2csc(-c3cc(C)on3)n2)cc1`, with less than 0.3 µg/mL.
